Like-named read-outs stand apart in the source and are kept apart here.
What was measured:
PI3Kδ (p110δ/p85α) = biological target: T1, PI3Kδ (p110δ/p85α) (Homo sapiens, UniProt O00329); assay: PI3Kδ scintillation proximity assay; assay type: biochemical
T1 construct: purchased Millipore (Bedford, Mass.)
Method in brief: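 IC50 was fitted to percent control activity against log concentration, from scintillation proximity counting of 33P-labelled lipid product captured on WGA beads after an EDTA quench. Reactions ran 210 minutes at room temperature: 4 nM PI3Kδ (p110δ/p85α), 20 μM PIP2, 20 μM ATP, pH 6.7 MOPS buffer, 0.5% DMSO.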

[1] = test system: Pfeiffer cell line (diffuse large B cell lymphoma); assay: Pfeiffer cell proliferation assay; assay type: cell-based
Procedure: Pfeiffer cell line (diffuse large B cell lymphoma) was purchased from ATCC (Manassas, Va.) and maintained in the culture medium recommended (RPMI and 10% FBS). To measure the anti-proliferation activity of the compounds, the Pfeiffer cells were plated with the culture medium (2×10^3 cells/well/per 200 μl) into 96-well ultra-low binding plates (Corning, Corning, N.Y.), in the presence or absence of a concentration range of test compounds. […]

[2] = Homo sapiens, Pfeiffer, first of two isolated isomers
[3] = Homo sapiens, Pfeiffer, second of two isolated isomers

T1 sequence (O00329 whole entry): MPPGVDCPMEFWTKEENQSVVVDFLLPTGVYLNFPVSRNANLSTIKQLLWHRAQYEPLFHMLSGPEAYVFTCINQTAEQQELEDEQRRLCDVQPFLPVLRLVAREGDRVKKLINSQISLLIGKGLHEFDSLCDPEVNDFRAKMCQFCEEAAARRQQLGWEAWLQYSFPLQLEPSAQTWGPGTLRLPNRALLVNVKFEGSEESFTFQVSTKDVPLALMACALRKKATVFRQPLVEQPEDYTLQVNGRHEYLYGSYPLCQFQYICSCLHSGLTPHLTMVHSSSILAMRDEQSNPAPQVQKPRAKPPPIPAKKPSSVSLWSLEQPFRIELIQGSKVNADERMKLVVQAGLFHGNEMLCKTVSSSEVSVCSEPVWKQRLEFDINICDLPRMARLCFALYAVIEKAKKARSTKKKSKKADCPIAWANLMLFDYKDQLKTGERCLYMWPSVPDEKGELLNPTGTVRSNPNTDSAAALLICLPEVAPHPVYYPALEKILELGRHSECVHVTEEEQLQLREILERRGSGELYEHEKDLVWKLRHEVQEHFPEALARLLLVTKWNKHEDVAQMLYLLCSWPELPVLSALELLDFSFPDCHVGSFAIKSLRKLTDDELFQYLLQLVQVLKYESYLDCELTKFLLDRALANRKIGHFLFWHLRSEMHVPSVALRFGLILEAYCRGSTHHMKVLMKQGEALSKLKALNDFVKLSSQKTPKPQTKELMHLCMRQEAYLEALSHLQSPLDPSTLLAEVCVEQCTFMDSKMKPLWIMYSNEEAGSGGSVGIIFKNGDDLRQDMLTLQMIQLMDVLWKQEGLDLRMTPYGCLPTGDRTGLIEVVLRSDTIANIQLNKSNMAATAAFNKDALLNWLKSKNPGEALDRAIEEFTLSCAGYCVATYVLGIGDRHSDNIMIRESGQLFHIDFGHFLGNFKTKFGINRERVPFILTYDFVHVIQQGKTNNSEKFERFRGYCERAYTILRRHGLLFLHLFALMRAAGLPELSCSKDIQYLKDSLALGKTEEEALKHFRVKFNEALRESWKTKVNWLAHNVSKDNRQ
T1 sequence (P27986 whole entry partner): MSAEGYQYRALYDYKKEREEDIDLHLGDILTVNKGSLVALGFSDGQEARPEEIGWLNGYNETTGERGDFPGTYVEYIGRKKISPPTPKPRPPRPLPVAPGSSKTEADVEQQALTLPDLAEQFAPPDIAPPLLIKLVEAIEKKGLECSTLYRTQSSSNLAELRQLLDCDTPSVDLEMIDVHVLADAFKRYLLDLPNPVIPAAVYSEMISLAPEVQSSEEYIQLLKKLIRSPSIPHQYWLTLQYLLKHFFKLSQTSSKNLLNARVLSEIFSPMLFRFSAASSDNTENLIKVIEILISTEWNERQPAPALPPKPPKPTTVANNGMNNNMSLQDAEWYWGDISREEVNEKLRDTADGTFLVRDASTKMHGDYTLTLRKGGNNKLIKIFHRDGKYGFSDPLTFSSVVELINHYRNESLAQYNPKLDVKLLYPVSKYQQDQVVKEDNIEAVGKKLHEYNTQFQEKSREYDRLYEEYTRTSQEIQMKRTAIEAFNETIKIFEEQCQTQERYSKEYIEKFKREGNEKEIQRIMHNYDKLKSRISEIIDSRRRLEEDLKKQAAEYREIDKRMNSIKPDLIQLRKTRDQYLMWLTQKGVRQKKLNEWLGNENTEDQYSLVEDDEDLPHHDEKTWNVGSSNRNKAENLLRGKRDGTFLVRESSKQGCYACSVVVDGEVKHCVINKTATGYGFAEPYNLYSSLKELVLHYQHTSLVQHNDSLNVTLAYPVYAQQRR

Compound | IC50 (PI3Kδ (p110δ/p85α)) [nM] | IC50 (PI3Kδ (p110δ/p85α); separated isomer, 1st peak) [nM] | IC50 (PI3Kδ (p110δ/p85α); separated isomer, 2nd peak) [nM] | IC50 [1, 3] [nM] | further results
Cc1cc(C(C)Nc2ncnc3[nH]cnc23)c(-c2cccc(F)c2)c2nnccc12 (single isomer, unassigned) [Example 36, N-{1-[8-(3-fluorophenyl)-5-methylcinnolin-7-yl]ethyl}-9H-purin-6-amine] | < 50 | – | – | – | IC50 ([1]; [3H]-thymidine incorporation): < 50 nM
Cc1cc(C(C)Nc2ncnc3[nH]cnc23)c(-c2cccc(F)c2)c2nnccc12 (single isomer, unassigned) [Example 37, N-{1-[8-(3-fluorophenyl)-5-methylcinnolin-7-yl]ethyl}-9H-purin-6-amine] | 500 to 1000 | – | – | – | IC50 ([1]; [3H]-thymidine incorporation): 500 to 1000 nM
CC(Nc1ncnc2[nH]cnc12)c1cc(Cl)c2cccnc2c1N1CCN(C(=O)c2ccccc2F)CC1 (stereo not drawn) [Example 93, N-(1-{5-Chloro-8-[4-(2-fluorobenzoyl)piperazin-1-yl]quinolin-7-yl}ethyl)-9H-purin-6-amine bis(trifluoroacetate)] | 250 to 500 | – | – | – | –
CC(Nc1ncnc2[nH]cnc12)c1cc(Cl)c2cccnc2c1N1CCN(C(=O)c2ccccn2)CC1 (stereo not drawn) [Example 95, N-(1-{5-Chloro-8-[4-(pyridin-2-ylcarbonyl)piperazin-1-yl]quinolin-7-yl}ethyl)-9H-purin-6-amine tris(trifluoroacetate)] | < 50 | – | – | – | –
CC(Nc1ncnc2[nH]cnc12)c1cc(Cl)c2cccnc2c1N1CCN(C(=O)c2cccnc2)CC1 (stereo not drawn) [Example 96, N-(1-{5-Chloro-8-[4-(pyridin-3-ylcarbonyl)piperazin-1-yl]quinolin-7-yl}ethyl)-9H-purin-6-amine tris(trifluoroacetate)] | < 50 | – | – | – | –
CC(Nc1ncnc2[nH]cnc12)c1cc(Cl)c2cccnc2c1N1CCN(C(=O)c2cnccn2)CC1 (stereo not drawn) [Example 97, N-(1-{5-Chloro-8-[4-(pyrazin-2-ylcarbonyl)piperazin-1-yl]quinolin-7-yl}ethyl)-9H-purin-6-amine bis(trifluoroacetate)] | < 50 | – | – | – | –
CC(Nc1ncnc2[nH]cnc12)c1cc(F)c2cccnc2c1-c1cccc(F)c1 (stereo not drawn) [Example 102, N-{1-[5-fluoro-8-(3-fluorophenyl)quinolin-7-yl]ethyl}-9H-purin-6-amine] | – | < 50 | > 1000 | – | –
CC(Nc1ncnc2[nH]cnc12)c1cc(F)c2cccnc2c1N1CCN(C(=O)c2cnn(C)c2)CC1 (stereo not drawn) [Example 103, N-[1-(5-Fluoro-8-{4-[(1-methyl-1H-pyrazol-4-yl)carbonyl]piperazin-1-yl}quinolin-7-yl)ethyl]-9H-purin-6-amine bis(trifluoroacetate)] | < 50 | – | – | – | –
CC(Nc1ncnc2[nH]cnc12)c1cc(Cl)c2conc2c1-c1cccc(F)c1 (stereo not drawn) [Example 104, N-{1-[4-Chloro-7-(3-fluorophenyl)-2,1-benzisoxazol-6-yl]ethyl}-9H-purin-6-amine] | < 50 | – | – | – | –
CC(Nc1ncnc2[nH]cnc12)c1cc(Cl)c2cn[nH]c2c1-c1cccc(F)c1 (stereo not drawn) [Example 105, N-{1-[4-Chloro-7-(3-fluorophenyl)-1H-indazol-6-yl]ethyl}-9H-purin-6-amine] | < 50 | – | – | – | –
CC(Nc1ncnc2[nH]cnc12)c1cc(Cl)c2cn[nH]c2c1-c1cc(F)cc(F)c1 (stereo not drawn) [Example 106, N-{1-[4-Chloro-7-(3,5-difluorophenyl)-1H-indazol-6-yl]ethyl)-9H-purin-6-amine] | < 50 | – | – | – | –
CC(Nc1ncnc2[nH]cnc12)c1cc(Cl)c2cnn(C)c2c1-c1cc(F)cc(F)c1 (stereo not drawn) [Example 107] | < 50 | – | – | – | –

Now from value to compound, other results behind:

IC50 (PI3Kδ (p110δ/p85α)) [nM] | IC50 (PI3Kδ (p110δ/p85α); separated isomer, 1st peak) [nM] | IC50 (PI3Kδ (p110δ/p85α); separated isomer, 2nd peak) [nM] | IC50 [1, 3] [nM] | Compound | further results
– | < 50 | > 1000 | > 1000 | CC(Nc1ncnc2[nH]cnc12)c1cc(Cl)c2cccnc2c1N1CCC[C@H](O)C1 (stereo partly drawn) [Example 48, (3S)-1-{5-Chloro-7-[1-(9H-purin-6-ylamino)ethyl]quinolin-8-yl}piperidin-3-ol] | IC50 [1, 2]: > 1000 nM
– | > 1000 | 100 to 250 | 250 to 500 | CC(Nc1ncnc2[nH]cnc12)c1cc(F)c2cccnc2c1N1CC[C@@H](O)C1 (stereo partly drawn) [Example 53, (3R)-1-{5-fluoro-7-[1-(9H-purin-6-ylamino)ethyl]quinolin-8-yl}pyrrolidin-3-ol] | –
– | 100 to 250 | 100 to 250 | > 1000 | CC(Nc1ncnc2[nH]cnc12)c1cc(Cl)c2cccnc2c1N1CCCC(CO)C1 (stereo not drawn) [Example 63, (1-{5-Chloro-7-[1-(9H-purin-6-ylamino)ethyl]quinolin-8-yl]piperidin-3-yl)methanol tris(trifluoroacetate)] | IC50 [1, 2]: > 1000 nM
– | 100 to 250 | 250 to 500 | 100 to 250 | COC1CCCN(c2c(C(C)Nc3ncnc4[nH]cnc34)cc(Cl)c3cccnc23)C1 (stereo not drawn) [Example 67, N-{1-[5-Chloro-8-(3-methoxypiperidin-1-yl)quinolin-7-yl]ethyl}-9H-purin-6-amine tris(trifluoroacetate)] | IC50 [1, 2]: 100 to 250 nM
– | 50 to 100 | < 50 | 50 to 100 | COC1CCN(c2c(C(C)Nc3ncnc4[nH]cnc34)cc(Cl)c3cccnc23)C1 (stereo not drawn) [Example 68, N-{1-[5-Chloro-8-(3-methoxypyrrolidin-1-yl)quinolin-7-yl]ethyl}-9H-purin-6-amine tris(trifluoroacetate)] | IC50 [1, 2]: 100 to 250 nM
> 1000 | – | – | 250 to 500 | CC(Nc1ncnc2[nH]cnc12)c1cc(Cl)c2cccnc2c1N1CCC(Oc2ccccc2)CC1 (stereo not drawn) [Example 75, N-{1-[5-Chloro-8-(4-phenoxypiperidin-1yl)quinolin-7-yl]ethyl}-9H-purin-6-amine bis(trifluoroacetate)] | –
– | > 1000 | < 50 | 500 to 1000 | CC(C)C(=O)N[C@H]1CCN(c2c(C(C)Nc3ncnc4[nH]cnc34)cc(Cl)c3cccnc23)C1 (stereo partly drawn) [Example 78, N-((3S)-1-{5-Chloro-7-[1-(9H-purin-6-ylamino)ethyl]quinolin-8-yl}pyrrolidin-3-yl)-2-methylpropanamide tris(trifluoroacetate)] | –
– | 50 to 100 | < 50 | 100 to 250 | COC(=O)N[C@H]1CCN(c2c(C(C)Nc3ncnc4[nH]cnc34)cc(Cl)c3cccnc23)C1 (stereo partly drawn) [Example 79, Methyl((3S)-1-{5-Chloro-7-[1-(9H-purin-6-ylamino)ethyl]quinolin-8-yl}pyrrolidin-3-yl)carbamate tris(trifluoroacetate)] | IC50 [1, 2]: 250 to 500 nM
– | 250 to 500 | < 50 | 100 to 250 | CC(Nc1ncnc2[nH]cnc12)c1cc(Cl)c2cccnc2c1N1CC[C@H](NS(C)(=O)=O)C1 (stereo partly drawn) [Example 80, N-((3S)-1-{5-Chloro-7-[1-(9H-purin-6-ylamino)ethyl]quinolin-8-yl}pyrrolidin-3-yl)methanesulfonamide tris(trifluoroacetate)] | –
< 50 | – | – | – | CC(=O)N1CCC(C(=O)N2CCN(c3c(C(C)Nc4ncnc5[nH]cnc45)cc(Cl)c4cccnc34)CC2)CC1 (stereo not drawn) [Example 94, N-[1-(8-{4-[(1-Acetylpiperidin-4-yl)carbonyl]piperazin-1-yl}-5-chloroquinolin-7-yl)ethyl]-9H-purin-6-amine bis(trifluoroacetate)] | –
< 50 | – | – | – | CC(Nc1ncnc2[nH]cnc12)c1cc(Cl)c2cccnc2c1N1CCN(C(=O)c2ccncc2)CC1 (stereo not drawn) [Example 98, N-{1-[5-Chloro-8-(4-isonicotinoylpiperazin-1-yl)quinolin-7-yl]ethyl}-9H-purin-6-amine tris(trifluoroacetate)] | –
< 50 | – | – | – | Cc1cc(C(=O)N2CCN(c3c(C(C)Nc4ncnc5[nH]cnc45)cc(Cl)c4cccnc34)CC2)no1 (stereo not drawn) [Example 99, N-[1-(5-Chloro-8-{4-[(5-methylisoxazol-3-yl)carbonyl]piperazin-1-yl}quinolin-7-yl)ethyl]-9H-purin-6-amine bis(trifluoroacetate)] | –
< 50 | – | – | – | Cc1noc(C)c1C(=O)N1CCN(c2c(C(C)Nc3ncnc4[nH]cnc34)cc(Cl)c3cccnc23)CC1 (stereo not drawn) [Example 100, N-[1-(5-Chloro-8-{4-[(3,5-dimethylisoxazol-4-yl)carbonyl]piperazin-1-yl}quinolin-7-yl)ethyl]-9H-purin-6-amine bis(trifluoroacetate)] | –
< 50 | – | – | – | CC(Nc1ncnc2[nH]cnc12)c1cc(Cl)c2cccnc2c1N1CCN(C(=O)c2ccn(C)n2)CC1 (stereo not drawn) [Example 101, N-[1-(5-Chloro-8-{4-[(1-methyl-1H-pyrazol-3-yl)carbonyl]piperazin-1-yl}quinolin-7-yl)ethyl]-9H-purin-6-amine bis(trifluoroacetate)] | –
